The text below walks through data of patent US20230393120A1, “A HUMAN VASCULAR INJURY-ON-A-CHIP MODEL OF HEMOSTASIS” (THE TRUSTEES OF THE UNIVERSITY OF PENNSYLVANIA, priority 2020, published 2023).

Where a SMILES comes first, the peptide text is derived from it. Bridges are numbered along the chain shown (N, C = ends). [ ]: non-standard residue; d: D form. hArg = N=C(N)NCCCC[C@H](N)C(=O)O; Mpa = O=C(O)CCS

The assay relates to injury-induced platelet and fibrin deposition (hemostatic plug formation), human whole blood. Put plainly: Drug testing in the vascular injury-on-a-chip perfused with drug-containing whole blood. It is filed as cell-based. The text has this:
Human vascular injury-on-a-chip as a drug screening platform: anticoagulants and antiplatelet agents can be used for treating or preventing thrombotic events in the arterial and venous circulations. However, anticoagulants and antiplatelet agents can increase the risk of bleeding, especially when used in combination. The disclosed vascular injury-on-a-chip model provides a potential tool for evaluating these adverse effects, offering a complementary approach to animal models. Such features were tested using Hirudin and eptifibatide as model compounds representing anticoagulant and antiplatelet drugs, respectively. The disclosed subject matter was used to measure and compare the extent of injury-induced platelet and fibrin deposition when the disclosed devices were perfused with drug-containing whole blood. […] For quantitative analysis, we devised an injury closure score ranging between 0 and 2, which corresponds to fully open and fully closed, respectively. The hirudin-treated devices yielded an average score of […] the untreated control group scored 1.138. (FIG. 5E), indicating the adverse effects of Hirudin on the formation of competent hemostatic plugs.
Preparation of blood vessel-on-a-chip: Assembled devices were autoclaved for sterilization prior to cell culture. To increase the strength of interfacial adhesion between collagen gel and PDMS, dopamine hydrochloride (Sigma-Aldrich) solution (2.0 mg/mL w/v in 10 mM Tris-HCl buffer, pH 8.5) was injected into the middle compartment of the device and incubated for 2 hours at room temperature. Next, 6 mg/ml of rat-tail collagen type I containing 2.5% (v/v) lipidated tissue factor (Dade Innovin Reagent, Siemens) was introduced into the polydopamine-treated chamber and polymerized at 37° C. for 30 minutes. After gelation, HUVECs suspended in EGM-2 medium were seeded into the intravascular channel at a density of 1.6-1.8×10^6 cells/ml and allowed to settle and adhere to the surface of the collagen hydrogel by rotating the device by 90°. Following cell attachment, the device was perfused with medium to form a confluent endothelial monolayer. For TNF-a experiments, HUVECs were seeded on a tissue factor-free collagen gel and treated overnight with 1 ng/ml of TNF-a (Peprotech).
Healthy donor blood preparation: The blood was obtained via venipuncture into a syringe containing 3.8% sodium citrate (9:1) and 40 μg/ml of corn trypsin inhibitor (CTI). Right before perfusion through the device, the blood was recalcified (15 mM CaCl2) for 3 minutes. Fluorescently-labeled antibodies to detect platelets (a-CD61-568), P-selectin (a-CD62P-647), and fibrin (a-Fibrin-488) were added at a final concentration of 1 μg/ml. If inhibitors were used in the experiment, they were added in the recalcification step as well. The final concentration for eptifibatide acetate was 100 μM, and for Hirudin was 4 μg/ml.
Puncture injury and global hemostasis assessment: For precise spatial control of injury, a 30 G blunt needle was inserted between the two PM DS channel layers during device assembly and used as a sheath that guides the insertion of a microneedle. To induce puncture injury, either a 0.12 or 0.20 mm acupuncture needle was inserted into the guide needle and gently pushed towards the extravascular compartments in a controlled manner either to pierce through the endothelium and the entire thickness of the collagen hydrogel or to superficially injure the endothelial layer. Following injury, the intravascular and extravascular channels were perfused with recalcified blood and HBSS buffer (20 mM HEPES, 2 mM Ca2+), respectively using two independently controlled syringe pumps (Fusion 400, Chemyx & BS-8000 120 V, Braintree Scientific).
Fluorescently-labeled antibodies to CD61, P-selectin, and fibrin were added to the blood prior to perfusion through the microfluidic device to visualize platelet deposition, platelet activation, and fibrin accumulation. […]

For `N=C(N)NCCCC[C@@H]1NC(=O)CCSSC[C@@H](C(N)=O)NC(=O)[C@@H]2CCCN2C(=O)[C@H](Cc2c[nH]c3ccccc23)NC(=O)[C@H](CC(=O)O)NC(=O)CNC1=O` [eptifibatide] ([Mpa][hArg]GDWPC-NH2; disulfide 1-7), for the setting “eptifibatide 100 μM”, the “contraction of the vessel wall (matrix deformation, normalized injury area over time)” value is recorded as “negligible contraction”. In addition, the platelet activation entry (eptifibatide 100 μM in whole blood) is reported as “reduction”. In addition, the fibrin accumulation entry (eptifibatide 100 μM in whole blood, relative to control) is listed as “did not change”. The platelet accumulation entry (eptifibatide 100 μM in whole blood, vs control) was “markedly reduce”. In addition, the “injury channel closure, compared with Hirudin” value (eptifibatide 100 μM vs Hirudin 4 μg/ml) is given as “to a greater extent than Hirudin”. The “state of the injury channel” value (eptifibatide 100 μM, confocal images) is “remained open”. Further, the “injury score (0 fully open, 1 partially closed, 2 fully closed)” value (eptifibatide 100 μM, final time point) stood at 0.
For the compound Hirudin, the fibrin accumulation entry (Hirudin 4 μg/ml in whole blood, vs control) is “drastically reduce”. The platelet accumulation entry (Hirudin 4 μg/ml in whole blood, vs control without the drug) is “no statistically significant changes”. Further, where the note is “Hirudin 4 μg/ml in whole blood, vs control without the drug, P-selectin MFI”, the platelet activation entry is “no statistically significant changes”. For the same compound, the “state of the injury channel openings” value (Hirudin 4 μg/ml, confocal images) is recorded as “intravascular end of the injury channel remained open, but platelet aggregates blocked the extravascular opening”. For the same compound, the “injury closure (injury closure score 0-2, fully open to fully closed)” value (Hirudin 4 μg/ml, final time point) was “inhibits”.
